Blank lines part the entries; values can stand above or below the molecule they belong to.
How the values were obtained:
[1] = tested on: ET-1; conditions: intravenous; clinical trial databases; cited from earlier work
[2] = tested on: rats; assay: intrathecal (IT) administration to rats: Evans blue distribution and maximum dose volume of saline for 30 minutes; conditions: rat, in vivo
Description: A first experiment was conducted to establish a procedure of intrathecal (IT) administration to rats to determine the maximum dose volume by IT administration of saline for 30 minutes. An approximately 30 μL of 1.0% Evans blue solution was administered to 6 anesthetized rats via a catheter placed in the subarachnoid space in the cisternal magna. After administration, the animals were necropsied, and the central nervous system (CNS) including the brain and cervical spinal cord were macroscopically observed to verify the distribution of Evans blue solution. In addition, 0.125, 0.25, 0.5, and 1.0 mL of saline, which is considered to be respectively approximately ½, equal, 2-fold, and 4-fold of a total volume of CSF in rats, was administered to 1 or 3 unanesthetized rats per dose volume. Saline was administered for 30 minutes using an infusion pump. Clinical signs were observed during the dosing and until 1 hour after dosing. The animals were necropsied on the next day of dosing and the CNS were macroscopically observed.

[3] = tested on: dogs; assay: intrathecal (IT) administration to dogs: Evans blue distribution and maximum dose volume of saline for 30 minutes; assay type: in vivo; conditions: anesthetized dogs, approx. 1 mL of 0.5% solution, catheter near the bregma
Description: A second experiment was conducted to establish a procedure of IT administration to dogs to determine the maximum dose volume by IT administration of saline for 30 minutes. An approximately 1 mL of 0.5% Evans blue solution was administered to 4 anesthetized dogs via a catheter placed in the subarachnoid space near the bregma. After the administration, the animals were necropsied, and the CNS was macroscopically observed to verify the distribution of the Evans blue solution. In addition, 8 or 4 mL of saline, which is considered to be respectively approximately […] of a total volume of CSF, was administered to 6 unanesthetized dogs under a restrained condition. Saline was administered during the dosing and until 1 hour after dosing. The animals were necropsied on the next day of dosing and the CNS were macroscopically observed.

[4] = solubility of trehalose in water (saturated trehalose solution); assay type: physicochemical; conditions: 20° C.
Description: FIGS. 4A-4G are graphs showing simulations of trehalose concentrations in human CSF to determine clinical dose regimens. The simulations assume that a CSF volume of a human is approximately 140 mL and that the CSF exchange rate is approximately […]. […] In the simulations, the trehalose is administered by a bolus injection, and is equally distributed in the CSF immediately after the injection. For the simulations below, a saturated trehalose solution was prepared by dissolving 68.9 g of trehalose per 100 g of water at 20° C.
FIG. 4A is a graph 400 showing a simulation of trehalose concentration 410 in human CSF to determine a clinical dose regimen. In this example simulation, 9.8 g of trehalose was estimated to be required to achieve a 7 wt % trehalose concentration in the CSF immediately after injection.

[5] = tested on: vasospasm associated with SAH; conditions: animal studies; high concentrations (~7%) in cranial ventricles; cited from earlier work

Compound: COc1ccccc1Oc1c(NS(=O)(=O)c2ccc(C)cn2)nc(-c2ccnc(-c3nnn[nH]3)c2)nc1OCCO [Clozasentan]
effect on vasospasm [1]: reversal of vasospasms in large arteries

Compound: Cc1cc(-c2ccc(/N=N/c3ccc4c(S(=O)(=O)O)cc(S(=O)(=O)O)c(N)c4c3O)c(C)c2)ccc1/N=N/c1ccc2c(S(=O)(=O)O)cc(S(=O)(=O)O)c(N)c2c1O [Evans blue solution, Evans blue]
distribution after IT administration (macroscopic observation) [2]: distributed to the subarachnoid space of the cisterna magna, the bottom of the brain, and the cervical spinal cord in all animals
distribution after IT administration (macroscopic observation) [3]: distributed to the subarachnoid space of the whole cerebral cortex

trehalose dissolved for a saturated solution [4]: 68.9 g per 100 g of water
Compound: OC[C@H]1O[C@H](O[C@H]2O[C@H](CO)[C@@H](O)[C@H](O)[C@H]2O)[C@H](O)[C@@H](O)[C@@H]1O [trehalose]
effect on inflammatory cascade and vasospasm associated with SAH [5]: significant inhibition of the inflammatory cascade and vasospasm

— patent publication US20230047766A1, “MEDICAL DEVICE, THERAPEUTIC METHOD, AND DIAGNOSTIC METHODS FOR THE TREATMENT AND PREVENTION OF VASOSPASM” (Sylvian Inc., priority 2020, published 2023)
